From PubChem BioAssay (NCI)
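Test compounds were applied to cells in 96-well plates for 48 hours at 5 doses. TGI: total growth inhibition.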

What was measured:
Test in all cases: NCI-60 cell line screen, 48 h
[1] = test system: 786-0 renal
[2] = test system: A549 NSCLC
[3] = test system: ACHN renal
[4] = test system: BT-549 breast
[5] = test system: CAKI-1 renal
[6] = test system: CCRF-CEM leukemia
[7] = test system: COLO 205 colon
[8] = test system: DU-145 prostate
[9] = test system: EKVX NSCLC
[10] = test system: HCC-2998 colon
[11] = test system: HCT-116 colon
[12] = test system: HCT-15 colon
[13] = test system: HL-60(TB) leukemia
[14] = test system: HOP-62 NSCLC
[15] = test system: HOP-92 NSCLC
[16] = test system: HS 578T breast
[17] = test system: HT29 colon
[18] = test system: IGROV1 ovarian
[19] = test system: K-562 leukemia
[20] = test system: KM12 colon
[21] = test system: LOX IMVI melanoma
[22] = test system: M14 melanoma
[23] = test system: MALME-3M melanoma
[24] = test system: MDA-MB-231 breast
[25] = test system: MDA-MB-435
[26] = test system: MDA-N
[27] = test system: MOLT-4 leukemia
[28] = test system: NCI-H226 lung
[29] = test system: NCI-H23 lung
[30] = test system: NCI-H460 lung
[31] = test system: NCI-H522 lung
[32] = test system: NCI/ADR-RES ovarian
[33] = test system: OVCAR-3 ovarian
[34] = test system: OVCAR-4 ovarian
[35] = test system: OVCAR-5 ovarian
[36] = test system: OVCAR-8 ovarian
[37] = test system: PC-3 prostate
[38] = test system: RPMI-8226 leukemia
[39] = test system: RXF 393 renal
[40] = test system: SF-268 CNS
[41] = test system: SF-295 CNS
[42] = test system: SF-539 CNS
[43] = test system: SK-MEL-2 melanoma
[44] = test system: SK-MEL-28 melanoma
[45] = test system: SK-OV-3 ovarian
[46] = test system: SN12C renal
[47] = test system: SNB-19 CNS
[48] = test system: SNB-75 CNS
[49] = test system: SW-620 colon
[50] = test system: T-47D breast
[51] = test system: U251 CNS
[52] = test system: UACC-257 melanoma
[53] = test system: UACC-62 melanoma
[54] = test system: UO-31 renal
[55] = test system: SK-MEL-5 melanoma
[56] = test system: SR leukemia
[57] = test system: TK-10 renal

Measured: TGI

COc1c(-c2nc3nc(N4CCN(C)CC4)ccc3[nH]2)cc(OC)c2c1nc(CO)n2C
not listed: [55] | [56] | [57]
> 100 µM: all other assays above

Fc1cc(-c2cc(-c3ccccc3)n[nH]2)c(Cl)cc1Cl
57.6 µM: [27]
23.2 µM: [19]
60.7 µM: [42]
not listed: [10] | [53]
> 100 µM: all other assays above
